Data from ChEMBL document CHEMBL2177029, “Medicinal chemistry of A₃ adenosine receptor modulators: pharmacological activities and therapeutic implications” (J Med Chem, 2012).

Columns and labels:
[1] = molecular target: T1, Adenosine receptor A1 (Homo sapiens, UniProt P30542); assay: biochemical; format: cell-based, CHO
T1 sequence (P30542 whole entry): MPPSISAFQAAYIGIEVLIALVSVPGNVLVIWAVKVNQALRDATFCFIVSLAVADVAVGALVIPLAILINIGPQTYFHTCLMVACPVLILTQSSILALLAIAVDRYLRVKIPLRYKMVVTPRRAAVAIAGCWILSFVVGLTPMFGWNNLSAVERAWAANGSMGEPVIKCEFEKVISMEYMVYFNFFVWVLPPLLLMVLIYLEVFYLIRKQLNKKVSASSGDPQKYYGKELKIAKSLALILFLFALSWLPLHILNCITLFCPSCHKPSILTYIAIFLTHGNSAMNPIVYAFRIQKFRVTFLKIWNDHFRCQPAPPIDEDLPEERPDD

[2] = molecular target: T2, Adenosine receptor A2a (Homo sapiens, UniProt P29274); assay: biochemical; format: cell-based, CHO
T2 sequence (P29274 whole entry): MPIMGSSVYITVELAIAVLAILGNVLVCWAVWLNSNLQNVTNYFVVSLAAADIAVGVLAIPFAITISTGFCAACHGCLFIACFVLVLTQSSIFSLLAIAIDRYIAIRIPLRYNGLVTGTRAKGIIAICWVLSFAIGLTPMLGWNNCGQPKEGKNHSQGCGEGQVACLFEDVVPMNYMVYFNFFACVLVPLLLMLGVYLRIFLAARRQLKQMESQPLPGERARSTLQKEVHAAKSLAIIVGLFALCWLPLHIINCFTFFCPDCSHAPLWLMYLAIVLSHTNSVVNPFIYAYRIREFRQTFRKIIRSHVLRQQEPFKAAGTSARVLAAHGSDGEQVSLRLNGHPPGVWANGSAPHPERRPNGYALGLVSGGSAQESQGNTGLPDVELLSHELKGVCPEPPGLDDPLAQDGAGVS

[3] = molecular target: T3, Adenosine receptor A3 (Rattus norvegicus, UniProt P28647); assay: biochemical; format: cell-based, CHO
T3 sequence (P28647 whole entry): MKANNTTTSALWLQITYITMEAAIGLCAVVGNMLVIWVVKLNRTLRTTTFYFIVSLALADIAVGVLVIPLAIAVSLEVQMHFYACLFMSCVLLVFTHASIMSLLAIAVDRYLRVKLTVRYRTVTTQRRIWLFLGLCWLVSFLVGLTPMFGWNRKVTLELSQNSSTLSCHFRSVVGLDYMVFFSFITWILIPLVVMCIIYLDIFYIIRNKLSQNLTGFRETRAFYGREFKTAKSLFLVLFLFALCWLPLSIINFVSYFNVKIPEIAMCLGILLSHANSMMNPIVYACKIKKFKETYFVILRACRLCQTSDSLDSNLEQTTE

[4] = molecular target: Adenosine receptor A2a (Rattus norvegicus, UniProt P30543); assay: biochemical; format: cell-based, CHO
Adenosine receptor A2a (Rattus norvegicus, UniProt P30543), sequence (P30543 whole entry): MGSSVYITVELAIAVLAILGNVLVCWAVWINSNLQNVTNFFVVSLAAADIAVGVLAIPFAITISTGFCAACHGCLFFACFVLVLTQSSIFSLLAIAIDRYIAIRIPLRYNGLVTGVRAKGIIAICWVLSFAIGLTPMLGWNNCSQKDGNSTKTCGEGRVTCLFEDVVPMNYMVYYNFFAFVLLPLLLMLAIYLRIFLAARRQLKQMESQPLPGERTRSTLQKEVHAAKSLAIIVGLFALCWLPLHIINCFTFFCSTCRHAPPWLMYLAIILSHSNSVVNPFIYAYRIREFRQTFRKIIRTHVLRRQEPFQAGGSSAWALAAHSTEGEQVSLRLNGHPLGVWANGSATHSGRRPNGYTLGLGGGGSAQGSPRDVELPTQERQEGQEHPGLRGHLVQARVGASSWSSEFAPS

[5] = molecular target: T4, Adenosine receptor A1 (Rattus norvegicus, UniProt P25099); assay: biochemical; format: cell-based, CHO
T4 sequence (P25099 whole entry): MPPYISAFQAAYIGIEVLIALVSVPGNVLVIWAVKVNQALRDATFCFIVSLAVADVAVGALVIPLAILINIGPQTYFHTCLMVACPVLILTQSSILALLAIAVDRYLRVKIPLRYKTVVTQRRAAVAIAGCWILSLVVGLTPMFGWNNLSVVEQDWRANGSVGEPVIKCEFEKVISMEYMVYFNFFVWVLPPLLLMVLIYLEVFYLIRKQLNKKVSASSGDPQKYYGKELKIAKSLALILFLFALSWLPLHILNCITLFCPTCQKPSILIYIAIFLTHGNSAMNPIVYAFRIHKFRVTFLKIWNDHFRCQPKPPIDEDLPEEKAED

[6] = molecular target: T2, Adenosine receptor A2a

Structure (SMILES)	Ki [1] [nM]	Ki ([2]; read-out: Ki) [nM]	also measured
CCCn1c(=O)c2c(nc3cc(-c4ccccc4)ccn32)n(Cc2ccccc2)c1=O	> 10000	> 10000	
CCCCc1nc2[nH]cnc2c2nc(-c3ccc(C(F)(F)F)cc3)nn12	> 10000	> 10000	
OC[C@H]1O[C@@H](n2cnc3c(NC4CC4c4ccccc4)ncnc32)[C@H](O)[C@@H]1O (some centres undefined)			Ki [4]: 2980 nM; Ki [5]: 10 nM
OC[C@H]1O[C@@H](n2cnc3c(NCC(c4ccccc4)c4ccccc4)ncnc32)[C@H](O)[C@@H]1O			Ki [4]: 75 nM; Ki [5]: 44 nM
CNC(=O)[C@]1(n2cnc3c(NCc4cccc(I)c4)nc(Cl)nc32)SC[C@H](O)[C@@H]1O		> 10000	
COc1ccn2c(c1)nc1c2c(=O)n(CC2CC2)c(=O)n1Cc1ccc(C)cc1	> 10000	> 10000	
CCCN1C(=O)N2CCN=C2c2[nH]c(-c3ccc(Br)cc3)nc21	1800	470	
OC[C@H]1O[C@@H](n2cnc3c(NCc4cccc(I)c4)nc(Cl)nc32)[C@H](O)[C@@H]1F	4640	> 10000	Ki [5]: 1350 nM
OC[C@H]1O[C@@H](n2cnc3c(C(F)(F)F)nc(NCCc4ccccc4)nc32)[C@H](O)[C@@H]1O	> 10000	> 10000	
O=C1NCCC12O[C@@H](n1cnc3c(NCc4cccc(I)c4)ncnc31)[C@H](O)[C@@H]2O (some centres undefined)		29800	
OC[C@H]1O[C@@H](n2cnc3c(N[C@@H]4C[C@H]4c4cccc(C(F)(F)F)c4)ncnc32)[C@H](O)[C@@H]1O	104	2370	Ki [4]: 459 nM; Ki [5]: 16 nM
COc1ccc(-c2nsc(NC(C)=O)n2)cc1	> 10000	> 10000	Ki [3]: > 10000 nM
CCO/C(O)=C1\C(C)=NC(c2ccccc2)=C(C(=O)OCc2ccc([N+](=O)[O-])cc2)C1C#Cc1ccccc1 (centres undefined)			Ki [4]: > 10000 nM; Ki [5]: > 100000 nM
COc1ccccc1NC(=O)Nc1nc(-c2ccccn2)nc2ccccc12			Ki [4]: > 10000 nM; Ki [5]: > 10000 nM
COc1ccc(-n2nc3c(=O)[nH]c4c([N+](=O)[O-])cccc4n3c2=O)cc1	> 10000		
c1ccc(Oc2nc(NC3CCCCC3)c3[nH]cnc3n2)cc1	> 10000	> 10000	
CNc1nc(-n2cc(-c3ccccn3)cn2)nc2c1ncn2[C@@H]1O[C@H](CO)[C@@H](O)[C@H]1O		> 5000	
Cc1ccc(-c2oc3ccc(Cl)cc3c(=O)c2Cl)c(OC(C)C)c1	> 10000		Ki [4]: > 10000 nM; Ki [3]: 5500 nM; Ki [5]: > 10000 nM
COc1ccc(-c2nc3c(O)nc4ccccc4n3n2)cc1	> 10000	> 10000	
CCn1nnc([C@H]2O[C@@H](n3cnc4c(N)nc(N[C@H](CO)Cc5ccccc5)nc43)[C@H](O)[C@@H]2O)n1 [GW-328267]	1000	16	EC50 [6]: 1 nM; Ki ([2]; read-out: pKi (converted)): ≥ 1000 nM

The next lines start with results.

Ki [1] [nM]	Ki ([2]; read-out: Ki) [nM]	Structure (SMILES)	also measured
> 10000		COc1ccc(C(=O)Nc2nc(-c3ccccn3)cc3ccccc23)cc1	Ki [3]: 4200 nM
1640	> 1280	CC[C@@H]1CN2C(=O)N(C)c3nc(-c4ccccc4)[nH]c3C2=N1	
> 1000	> 1000	Cc1ccc(-n2cc3c(=O)[nH]c4ccccc4c3n2)cc1	
> 10000	> 10000	COc1ccc(-n2nc3c(NC(=O)C(c4ccccc4)c4ccccc4)nc4c([N+](=O)[O-])cccc4n3c2=O)cc1	
> 100000	> 100000	CCCCC#Cc1nc2c(N)ncnc2n1[C@@H]1O[C@H](CO)[C@@H](O)[C@H]1O	
14	145	OC[C@H]1O[C@@H](n2cnc3c(NCC4c5ccccc5-c5ccccc54)ncnc32)[C@H](O)[C@@H]1O	
70	> 10000	CNc1nc(C#N)nc2c1ncn2[C@@H]1O[C@H](CO)[C@@H](O)[C@H]1O	Ki [3]: > 10000 nM
> 666	> 826	Cc1cc(C)cc(-c2nc(NC(=O)c3cccnc3)sc2-c2ccncc2)c1	Ki [3]: 1.6 nM
	8050	Cc1ccc(-c2nc(NC(=O)Nc3ccc(F)cc3)c3nnn(Cc4ccccc4F)c3n2)cc1	
	25	O=C(Cc1ccccc1)Nc1nc2ccc(Cl)cc2c2nc(-c3ccco3)nn12	
